# Source: patent publication US8426364B2, “Method of preventing progression of hypertension-induced heart failure with PKC peptides” (The Board of Trustees of the Leland Stanford Junior …, priority 0011, dated 2013)
# How the values were obtained:
# Dahl salt-sensitive rats [1] = test: Hypertension-induced heart failure rat model (survival, echocardiography, blood pressure, body weight); format: in vivo; conditions: for Systolic Wall Stress: calculated (SBP × ESD)/[4 × PWT × (1 + PWT/ESD)]; for Systolic Wall Stress / EDD (LV end-diastolic diameter) / ESD (LV end-systolic diameter) / FS (LV fractional shortening) / PWT (LV posterior wall thickness): mean ± SEM; for survival: treated for six weeks, compared to TAT control peptide
# Method: To determine whether εPKC plays any role in the transition to heart failure and death, HS rats were treated with the selective εPKC inhibiting peptide, TAT47-57-εV1-2 (εV1-2; 2.8 μg/kg/day using a subcutaneous Alzet pump (26)) or with saline as a control (HS-control) from the age of 11 weeks (when compensatory hypertrophy is seen) to 17 weeks (when heart failure is apparent; FIG. 1A)). Another group of hypertensive rats was treated for the same period with a common clinical treatment, the angiotensin II receptor type 1 blocker (ARB, olmesartan, Olm; 3 mg/kg/day).
# Animal protocols were approved by the Stanford University Institutional Animal Care and Use Committee. Dahl salt-sensitive rats provide a reliable animal model of hypertension-induced heart failure. When placed on 8% NaCl-containing diet from the age of 6 weeks (HS rats), the rats develop compensative left ventricular hypertrophy by the age of 11 weeks, and die from heart failure when they reach 16 to 21 weeks (21, 25). Male Dahl salt-sensitive rats were fed with an 8% NaCl-containing diet (Dahl-high-salt) or with a 0.3% NaCl low salt diet (LS-control; n=25) from the age of 6 weeks onward as previously reported (3, 21). Dahl-high-salt rats were treated between the ages of 11 and 17 weeks with the selective εPKC inhibiting peptide, TAT47-57-εV1-2 (εV1-2; n=10, 2.8 μg/kg/day), with TAT47-57-εV1-1 (εV1-1; n=14, 2.8 μg/kg/day), or with saline as a control (HS-Control; n=12), using osmotic pumps implanted subcutaneously. A fourth group was treated with angiotensin II receptor type 1 blocker, olmesartan (ARB; n=12, 3 mg/kg/day in 0.5% carboxymethylcellulose) delivered by daily gavage for the same period. A fifth group was treated from 15 to 17 weeks of age with the selective εPKC activating peptide, TAT47-57-ΨεRACK (ΨεRACK; n=17, 2.8 μg/kg/day) using an osmotic pump implanted subcutaneously (FIG. 1).
# The osmotic pumps were replaced every two weeks, but were discontinued after the age of 17 weeks because half of the HS-control rats died by that age. Additional groups were treated with εV1-2 (using the Alzet pump) together with ARB (n=12) or with ARB alone (n=13) from 11 to 19 weeks of age (FIG. 6). Survival rate, fractional shortening and blood pressure were evaluated in these groups. Systolic blood pressure was measured by the tail-cuff method (BP-2000 Blood Pressure Analysis System, Visitech Systems, Inc), and fractional shortening was measured by transthoracic echocardiography (Vivid 7, GE). Additional control Dahl-high-salt rats were treated with TAT47-57 carrier peptide between 11 to 17 weeks or between 15 to 17 weeks, with vehicle for ARB (0.5% carboxymethylcellulose) or were left untreated and evaluated for survival rate, cardiac function and blood pressure.
# Dahl salt-sensitive rats [2] = test: Histological analysis of left ventricle (Masson's trichrome, H&E); format: in vivo, rat
# Method: For morphometric analysis, left ventricle (LV) specimens from 17-week-old rats (n=4 for each group) were fixed with 10% buffered formalin and embedded in paraffin. Several sections were prepared from each specimen and stained with either hematoxylin and eosin (H&E) for assessment of inflammation and proliferation of vascular cells, or with Masson's trichrome stain to assess the area of cardiac fibrosis using a point-counting method (22, 23).
# 92 genes = test: Real-time PCR gene expression in LV tissue; format: in vivo, rat; conditions: LV from 17-week-old rats; 92 genes examined
# Method: In another study, the effects of pharmacological inhibition or activation of εPKC and olmesartan on gene expression profile was analyzed. To address the molecular differences in the protective effects induced by εPKC inhibition and olmesartan, real-time PCR was used to monitor changes in gene expression resulting from each treatment. The effects of chronic treatment (as above) with the εPKC inhibitor (TAT47-57-εV1-2), the εPKC activator (TAT47-57-ΨεRACK) or olmesartan (ARB) in LV from 17-week-old rats on the expression of 92 genes was examined. […]
# Two μg of total RNA extracted from the LV tissues of each […] rat (n=6 for each group) were converted to first-strand cDNA by reverse transcription using High Capacity cDNA Archive kit (Applied Biosystems). […] The fluorescence signals were normalized to the ubiquitously expressed housekeeping gene, β-actin. Fold-changes of mRNA expression of each group compared to the LS-control were determined by comparing cycle threshold values (24). Statistical analysis was assessed by 1-way factorial ANOVA with Fisher's test. […]
# Dahl salt-sensitive rats [3] = test: Hypertension-induced heart failure rat model (survival, echocardiography, blood pressure, body weight); format: in vivo; conditions: age of 11, 13, 15 and 17 weeks; β peptide study
# [4] = 17 weeks of age, high-salt rats, εV1-2 and Olm treated 11 to 17 weeks, ΨεR 15 to 17 weeks
# [5] = 24 weeks of age, treated 11 to 19 weeks of age
compound,measurement,setting,value
"CCCc1nc(C(C)(C)O)c(C(=O)O)n1Cc1ccc(-c2ccccc2-c2nnn[nH]2)cc1 [Olm, olmesartan]",Systolic Wall Stress,Dahl salt-sensitive rats [1]; 17 weeks of age,50.7 ± 4.4 g/cm^2
same,EDD (LV end-diastolic diameter),Dahl salt-sensitive rats [1]; [4],7.3 ± 0.2 mm
same,ESD (LV end-systolic diameter),Dahl salt-sensitive rats [1]; [4],3.1 ± 0.2 mm
same,FS (LV fractional shortening),Dahl salt-sensitive rats [1]; [4],58.4 ± 1.6 %
same,PWT (LV posterior wall thickness),Dahl salt-sensitive rats [1]; [4],1.5 ± 0.04 mm
same,EDD (LV end-diastolic diameter),Dahl salt-sensitive rats [1]; [5],7.9 ± 0.2 mm
same,ESD (LV end-systolic diameter),Dahl salt-sensitive rats [1]; [5],4.9 ± 0.5 mm
same,FS (LV fractional shortening),Dahl salt-sensitive rats [1]; [5],38.3 ± 4.6%
same,PWT (LV posterior wall thickness),Dahl salt-sensitive rats [1]; [5],1.5 ± 0.03 mm
same,Systolic Wall Stress,"Dahl salt-sensitive rats [1]; 24 weeks of age, treated 11 to 19 weeks",105.8 ± 13.6 g/cm^2
same,reduction of fibrosis in LV,"Dahl salt-sensitive rats [2]; as compared with HS-control, 17-week-old rats, Masson's trichrome",~50%
same,number of genes with expression modified by this treatment but not the other,92 genes,15 genes
CC[C@H](C)[C@H](NC(=O)[C@@H]1CCCN1C(=O)[C@H](C)NC(=O)[C@H](CC(=O)O)NC(=O)[C@H](Cc1c[nH]cn1)NC(=O)[C@@H](N)CSSC[C@H](N)C(=O)N[C@@H](Cc1ccc(O)cc1)C(=O)NCC(=O)N[C@@H](CCCNC(=N)N)C(=O)N[C@@H](CCCCN)C(=O)N[C@@H](CCCCN)C(=O)N[C@@H](CCCNC(=N)N)C(=O)N[C@@H](CCCNC(=N)N)C(=O)N[C@@H](CCC(N)=O)C(=O)N[C@@H](CCCNC(=N)N)C(=O)N[C@@H](CCCNC(=N)N)C(=O)N[C@@H](CCCNC(=N)N)C(=O)O)C(=O)NCC(=O)N[C@@H](Cc1ccc(O)cc1)C(=O)N[C@@H](CC(=O)O)C(=O)O [ΨεR],arterial stenosis,"Dahl salt-sensitive rats [2]; hypertensive rats, chronic treatment",induced arterial stenosis
same,arterial stenosis,Dahl salt-sensitive rats [2]; normotensive Dahl salt-sensitive rats on a low-salt diet,did not cause arterial stenosis
"βIIV5-3: βIIV5-3 peptide inhibitor QEVIRN (SEQ ID NO: 3), from the V5 domain of βIIPKC (Synthetic peptide inhibitor)",left ventricular weight to body weight ratio (LVW/BW),Dahl salt-sensitive rats [1]; 17-weeks old rats,reduced
same,fractional shortening,"Dahl salt-sensitive rats [1]; at 17 weeks, vs TAT control, in words",significantly reduced fractional shortening
same,wall stress,"Dahl salt-sensitive rats [1]; hypertensive rats, in words",reduces wall stress
same,survival,Dahl salt-sensitive rats [1],prolonged survival significantly longer than treatment with the βIV5-3 peptide inhibitor
same,systolic blood pressure,Dahl salt-sensitive rats [3],less than in the TAT or βIV5-3 peptide-treated animals
"βIV5-3: βIV5-3 PKC peptide inhibitor KLFIMN (SEQ ID NO: 2), from the V5 domain of βIPKC (Synthetic PKC peptide inhibitor)",survival,Dahl salt-sensitive rats [1],prolonged survival
